Test results as given in publication PMC6010129, “Evaluation of sulphonamide derivatives acting as inhibitors of human carbonic anhydrase isoforms I, II and Mycobacterium tuberculosisβ-class enzyme Rv3273” (Journal of Enzyme Inhibition and Medicinal Chemistry, 2018).

Key:
[1] = biological target: T1, hCA I (Homo sapiens, UniProt P00915); assay: stopped-flow CO2 hydrase assay; assay type: biochemical
T1 construct: gene CA1; cytosolic isoform
Description: stopped-flow CO2 hydrase assay on hCA I

[2] = biological target: T2, hCA II (Homo sapiens, UniProt P00918); assay: stopped-flow CO2 hydrase assay; assay type: biochemical
T2 construct: gene CA2; cytosolic isoform
Description: stopped-flow CO2 hydrase assay on hCA II

[3] = biological target: T3, mtCA 3 (Mycobacterium tuberculosis, UniProt P96878); assay: biochemical; parameters: stopped-flow CO2 hydration assay, phenol red absorbance at 557 nm, 15 min pre-incubation, Ki by Cheng-Prusoff
T3 construct: beta-class carbonic anhydrase
Protocol: An Sx.18Mv-R Applied Photophysics (Oxford, UK) stopped-flow instrument has been used to assay the catalytic activity of various CA isozymes for CO2 hydration reaction. Phenol red (at a concentration of 0.2 mM) was used as indicator, working at the absorbance maximum of 557 nm, with 10 mM Hepes (pH 7.5) or 10 mM Tris (pH 8.5) as buffers, and 0.1 M Na2SO4 (for maintaining constant ionic strength, which is not inhibitory against these enzymes), following the CA-catalysed CO2 hydration reaction for a period of 10 s at 25 °C. The CO2 concentrations ranged from 1.7 to 17 mM for the determination of the kinetic parameters and […]. For each inhibitor at least six traces of the initial 5–10% of the reaction have been used for determining the initial rate. The uncatalysed rates were determined in the same manner and subtracted from the total observed rates. Stock solutions of inhibitors (10 mM) were prepared in distilled-deionised […] to 1 nM using the assay buffer. Inhibitor and enzyme solutions were pre-incubated together for 15 min (standard assay at room temperature) prior to assay, in order to allow for the formation of the enzyme–inhibitor complex. The inhibition constant (KI), was obtained by considering the classical Michaelis–Menten equation and the Cheng-Prusoff algorithm by using non-linear least squares fitting as reported earlier. The compounds 5 and 6 reported here were investigated as inhibitors of three CAs involved in crucial physiologic processes and known to act as drug targets, i.e. the human (h) isoforms hCA I and II (belonging to the α-CA class) and the bacterial enzyme mtCA3 from Mycobacterium tuberculosis (a β-class CA) (Table 3). Acetazolamide (AAZ), a clinically used sulphonamide has been employed as standard inhibitor in the assay.

T3 sequence (P96878 entry or part of it): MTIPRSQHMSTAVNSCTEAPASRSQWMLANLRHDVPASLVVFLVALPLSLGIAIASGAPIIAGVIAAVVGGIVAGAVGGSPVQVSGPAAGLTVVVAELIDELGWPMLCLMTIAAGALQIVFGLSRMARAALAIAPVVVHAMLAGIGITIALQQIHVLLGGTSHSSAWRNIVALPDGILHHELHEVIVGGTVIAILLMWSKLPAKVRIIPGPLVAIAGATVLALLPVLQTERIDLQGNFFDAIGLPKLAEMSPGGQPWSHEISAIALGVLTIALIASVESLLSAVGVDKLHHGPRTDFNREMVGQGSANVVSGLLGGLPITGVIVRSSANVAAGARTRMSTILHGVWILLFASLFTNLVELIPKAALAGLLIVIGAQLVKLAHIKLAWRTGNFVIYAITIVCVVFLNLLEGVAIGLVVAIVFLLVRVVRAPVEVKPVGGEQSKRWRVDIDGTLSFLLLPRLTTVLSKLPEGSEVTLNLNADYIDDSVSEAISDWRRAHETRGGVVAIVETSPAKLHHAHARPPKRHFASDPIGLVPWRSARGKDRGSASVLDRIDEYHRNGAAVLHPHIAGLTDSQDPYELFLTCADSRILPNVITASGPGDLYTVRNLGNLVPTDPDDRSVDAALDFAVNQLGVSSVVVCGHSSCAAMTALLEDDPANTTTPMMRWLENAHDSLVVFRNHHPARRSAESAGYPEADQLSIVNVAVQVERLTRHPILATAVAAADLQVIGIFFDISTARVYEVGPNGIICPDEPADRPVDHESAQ
T1 sequence (P00915 2-261): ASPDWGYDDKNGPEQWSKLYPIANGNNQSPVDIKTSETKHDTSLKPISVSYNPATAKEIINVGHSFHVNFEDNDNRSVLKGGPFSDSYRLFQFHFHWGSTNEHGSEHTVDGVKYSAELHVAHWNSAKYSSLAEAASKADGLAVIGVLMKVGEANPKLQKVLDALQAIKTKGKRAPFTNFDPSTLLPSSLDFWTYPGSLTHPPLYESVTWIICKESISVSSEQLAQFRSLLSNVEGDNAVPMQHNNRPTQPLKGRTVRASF

| SMILES | Ki [1] [nM] | Ki [2] [nM] | Ki [3] [nM] |
| --- | --- | --- | --- |
| COc1cccc(C=NNC(=O)CNc2ccc(S(N)(=O)=O)cc2)c1OC [6j, 4-((2-(2-(2,3-Dimethoxybenzylidene)hydrazinyl)-2-oxoethyl)amino)benzenesulphonamide] | 785 | 240 | 232 |
| NS(=O)(=O)c1ccc(NCC(=O)N/N=C/c2ccccc2O)cc1 [6c, 4-((2-(2-(2-Hydroxybenzylidene)hydrazinyl)-2-oxoethyl)amino) benzenesulphonamide] | 54.6 | 32.1 | 2150 |
